In US20080009418A1, “Selective Inhibitors” (Alchemia LTD., priority 2004, published 2008):

Experiments:
Human Melanocortin (MC3) = target: T1, Human Melanocortin (MC3) (Homo sapiens, UniProt P41968); assay: Radioligand binding, human melanocortin MC3 membranes, FlashPlate, [125I]-NDP-αMSH; settings: compound at 10 μM, [125I]-NDP-αMSH
T1 construct: purchased Perkin Elmer Biosignal
Outline: (§1)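 Cloned human receptor membranes were coated onto FlashPlate wells and incubated with radioligand and compound (added from a 0.5 mM DMSO daughter plate) for 1 hour at room temperature in the dark. Scintillation counting gave percent inhibition, with DMSO defining total and reference ligand defining non-specific binding.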

Mouse urotensin (mUR2) = target: T2, Mouse urotensin (mUR2) (Mus musculus, UniProt Q8VIH9); assay: Radioligand binding, mouse urotensin mUR2 membranes, FlashPlate, [125I]-Urotensin II; settings: compound at 10 μM; [125I]-Urotensin II
T2 construct: purchased Perkin Elmer Biosignal
T2 sequence (Q8VIH9 1-385): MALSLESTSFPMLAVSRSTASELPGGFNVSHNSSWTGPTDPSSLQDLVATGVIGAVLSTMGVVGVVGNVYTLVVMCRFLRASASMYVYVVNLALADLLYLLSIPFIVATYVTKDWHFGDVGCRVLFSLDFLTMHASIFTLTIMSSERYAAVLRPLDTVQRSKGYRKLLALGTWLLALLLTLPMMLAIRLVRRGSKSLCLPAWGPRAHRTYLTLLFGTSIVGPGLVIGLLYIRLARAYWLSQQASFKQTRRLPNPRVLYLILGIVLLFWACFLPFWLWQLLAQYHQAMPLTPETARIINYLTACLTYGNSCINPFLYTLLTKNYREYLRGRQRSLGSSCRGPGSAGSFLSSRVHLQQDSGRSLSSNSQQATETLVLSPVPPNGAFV
Outline: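 Cloned mouse urotensin (mUR2) receptor membranes from Perkin Elmer Biosignal were immobilized in FlashPlate microplates using a proprietary coating. Each well got 19.5 μl buffer, then 0.5 μl of DMSO, reference ligand, or compound. Adding 5 μl of [125I]-Urotensin II, diluted to 5× final concentration in binding buffer, started binding. Plates were sealed with TopSeal-A and incubated 1 hour at room temperature in the dark. Wells were counted for 30 seconds each on a TopCount after a 60-second delay, and percentage inhibition was calculated.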

Human δ-opioid (DOP) = target: T3, Human δ-opioid (DOP) (Homo sapiens, UniProt P41143); assay: Radioligand binding, human δ-opioid (DOP) membranes, FlashPlate, [3H]-Bremazocine; settings: compound at 10 μM; [3H]-Bremazocine
T3 construct: purchased Perkin Elmer Biosignal
Outline: as §1

Human opioid (ORL1) = target: T4, Human opioid (ORL1) (Homo sapiens, UniProt P41146); assay: Radioligand binding, human opioid ORL1 membranes, FlashPlate, [125I]-Nociceptin; settings: compound at 10 μM, [125I]-Nociceptin
T4 construct: purchased Perkin Elmer Biosignal
Outline: as §1

Human μ-opioid (MOP) = target: T5, Human μ-opioid (MOP) (Homo sapiens, UniProt P35372); assay: Radioligand binding, human μ-opioid (MOP) membranes, FlashPlate, [3H]-Naloxone; settings: compound at 10 μM; [3H]-Naloxone
T5 construct: purchased Perkin Elmer Biosignal
Outline: as §1

[1] = target: T6, Human melanin-concentrating hormone (MCH1) (Homo sapiens, UniProt Q99705); assay: Radioligand binding, human melanin-concentrating hormone MCH1 membranes, FlashPlate, [125I]-S36057; settings: compound at 10 μM, [125I]-S36057
T6 construct: purchased Perkin Elmer Biosignal
Outline: as §1

[2] = target: T7, Human neuropeptide Y (NPY-Y1) (Homo sapiens, UniProt P25929); assay: Radioligand binding, human neuropeptide Y NPY-Y1 membranes, FlashPlate, [125I]-PYY; settings: compound at 10 μM; [125I]-PYY
T7 construct: purchased Perkin Elmer Biosignal
T7 sequence (P25929 1-384): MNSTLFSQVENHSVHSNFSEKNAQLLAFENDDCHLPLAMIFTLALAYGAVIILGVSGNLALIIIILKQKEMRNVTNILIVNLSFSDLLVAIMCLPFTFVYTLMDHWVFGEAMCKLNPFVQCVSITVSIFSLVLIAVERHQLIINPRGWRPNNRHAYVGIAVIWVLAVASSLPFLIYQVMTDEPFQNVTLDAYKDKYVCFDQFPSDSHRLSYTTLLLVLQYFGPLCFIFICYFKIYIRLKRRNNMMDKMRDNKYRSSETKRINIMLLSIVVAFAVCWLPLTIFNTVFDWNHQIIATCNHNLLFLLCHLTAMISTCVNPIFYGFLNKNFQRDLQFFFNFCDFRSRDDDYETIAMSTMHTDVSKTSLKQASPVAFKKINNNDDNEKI
Outline: as §1

Human melanocortin (MC5) = target: T8, Human melanocortin (MC5) (Homo sapiens, UniProt P33032); assay: Radioligand binding, human melanocortin MC5 membranes, FlashPlate, [125I]-NDP-αMSH; settings: compound at 10 μM, [125I]-NDP-αMSH
T8 construct: purchased Perkin Elmer Biosignal
Outline: as §1

Human κ-Opioid (KOP) = target: T9, Human κ-Opioid (KOP) (Homo sapiens, UniProt P41145); assay: Radioligand binding, human κ-opioid (KOP) membranes, filtration, [3H]-Diprenorphine; settings: compound at 10 μM; [3H]-Diprenorphine
T9 construct: purchased Perkin Elmer Biosignal
Outline: (§2)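 Percent inhibition of radioligand binding measured on recombinant human membranes: NK1 with [125I]-Substance P, KOP with [3H]-Diprenorphine. Incubation 1 h at room temperature, then harvest onto 0.3% PEI-soaked filters, cold Tris-HCl pH 7.4 washes and scintillation counting; non-specific binding from reference ligand wells.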

Human neurokinin (NK1) = target: T10, Human neurokinin (NK1) (Homo sapiens, UniProt P25103); assay: Radioligand binding, human neurokinin NK1 membranes, filtration, [125I]-Substance P; settings: compound at 10 μM; [125I]-Substance P
T10 construct: purchased Perkin Elmer Biosignal
Outline: as §2

Human Melanocortin (MC4) = target: T11, Human Melanocortin (MC4) (Homo sapiens, UniProt P32245); assay: Radioligand binding, human melanocortin MC4 membranes, FlashPlate, [125I]-NDP-αMSH; settings: compound at 10 μM, [125I]-NDP-αMSH
T11 construct: purchased Perkin Elmer Biosignal
Outline: as §1

T3 sequence (P41143 whole entry): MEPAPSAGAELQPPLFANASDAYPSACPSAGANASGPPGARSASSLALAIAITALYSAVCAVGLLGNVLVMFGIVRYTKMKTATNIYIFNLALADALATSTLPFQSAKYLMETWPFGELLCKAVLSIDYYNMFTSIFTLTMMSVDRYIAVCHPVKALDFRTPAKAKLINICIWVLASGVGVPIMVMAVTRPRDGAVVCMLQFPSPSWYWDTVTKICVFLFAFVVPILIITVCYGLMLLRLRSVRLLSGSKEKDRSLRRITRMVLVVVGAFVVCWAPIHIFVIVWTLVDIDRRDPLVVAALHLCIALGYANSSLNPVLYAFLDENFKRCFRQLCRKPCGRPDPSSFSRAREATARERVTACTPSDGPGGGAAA
T5 sequence (P35372 whole entry): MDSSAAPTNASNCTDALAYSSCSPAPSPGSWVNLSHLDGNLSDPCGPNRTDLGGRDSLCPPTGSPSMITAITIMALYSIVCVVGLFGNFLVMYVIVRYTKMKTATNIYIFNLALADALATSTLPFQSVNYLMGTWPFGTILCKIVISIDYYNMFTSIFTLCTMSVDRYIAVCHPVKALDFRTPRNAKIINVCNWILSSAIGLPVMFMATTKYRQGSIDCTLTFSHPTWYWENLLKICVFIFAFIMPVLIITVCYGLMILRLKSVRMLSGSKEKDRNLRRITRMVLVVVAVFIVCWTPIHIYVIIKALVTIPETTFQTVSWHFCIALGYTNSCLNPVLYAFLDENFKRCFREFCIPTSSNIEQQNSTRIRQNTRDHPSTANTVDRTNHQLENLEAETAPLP
T1 sequence (P41968 whole entry): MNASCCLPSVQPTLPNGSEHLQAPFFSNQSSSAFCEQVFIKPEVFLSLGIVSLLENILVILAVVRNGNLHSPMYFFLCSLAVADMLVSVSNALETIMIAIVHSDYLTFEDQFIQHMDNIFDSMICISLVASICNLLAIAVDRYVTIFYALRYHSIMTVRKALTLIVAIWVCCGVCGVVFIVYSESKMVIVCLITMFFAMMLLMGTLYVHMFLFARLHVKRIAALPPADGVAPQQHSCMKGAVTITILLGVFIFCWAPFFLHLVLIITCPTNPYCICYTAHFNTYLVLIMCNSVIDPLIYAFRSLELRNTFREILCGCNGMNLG
T8 sequence (P33032 whole entry): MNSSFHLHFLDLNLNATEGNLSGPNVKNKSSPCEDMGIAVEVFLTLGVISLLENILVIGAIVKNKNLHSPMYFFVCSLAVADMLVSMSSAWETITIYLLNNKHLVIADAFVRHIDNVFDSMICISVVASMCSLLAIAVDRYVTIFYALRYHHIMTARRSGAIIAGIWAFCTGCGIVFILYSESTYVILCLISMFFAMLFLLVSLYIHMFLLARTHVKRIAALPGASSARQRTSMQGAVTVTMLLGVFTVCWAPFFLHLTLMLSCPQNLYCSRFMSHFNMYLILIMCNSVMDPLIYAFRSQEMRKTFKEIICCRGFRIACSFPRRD
T9 sequence (P41145 whole entry): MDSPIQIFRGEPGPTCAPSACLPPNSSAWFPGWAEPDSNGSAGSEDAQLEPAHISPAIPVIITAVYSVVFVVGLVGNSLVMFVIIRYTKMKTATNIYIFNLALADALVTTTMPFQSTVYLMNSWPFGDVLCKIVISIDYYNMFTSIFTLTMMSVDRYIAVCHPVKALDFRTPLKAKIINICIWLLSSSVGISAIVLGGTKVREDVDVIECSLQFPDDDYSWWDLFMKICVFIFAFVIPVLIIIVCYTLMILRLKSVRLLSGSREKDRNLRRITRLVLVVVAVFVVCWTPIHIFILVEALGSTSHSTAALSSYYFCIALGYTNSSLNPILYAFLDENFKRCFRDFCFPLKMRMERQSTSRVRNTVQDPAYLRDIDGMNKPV
T11 sequence (P32245 whole entry): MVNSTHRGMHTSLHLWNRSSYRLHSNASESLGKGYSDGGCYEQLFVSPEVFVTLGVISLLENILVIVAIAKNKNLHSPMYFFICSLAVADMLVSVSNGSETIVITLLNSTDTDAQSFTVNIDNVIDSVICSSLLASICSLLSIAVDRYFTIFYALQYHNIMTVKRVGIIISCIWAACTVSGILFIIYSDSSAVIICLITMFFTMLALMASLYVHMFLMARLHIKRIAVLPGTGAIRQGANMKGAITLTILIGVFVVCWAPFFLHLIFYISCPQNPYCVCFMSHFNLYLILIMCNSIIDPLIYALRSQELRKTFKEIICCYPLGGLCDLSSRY
T6 sequence (Q99705 whole entry): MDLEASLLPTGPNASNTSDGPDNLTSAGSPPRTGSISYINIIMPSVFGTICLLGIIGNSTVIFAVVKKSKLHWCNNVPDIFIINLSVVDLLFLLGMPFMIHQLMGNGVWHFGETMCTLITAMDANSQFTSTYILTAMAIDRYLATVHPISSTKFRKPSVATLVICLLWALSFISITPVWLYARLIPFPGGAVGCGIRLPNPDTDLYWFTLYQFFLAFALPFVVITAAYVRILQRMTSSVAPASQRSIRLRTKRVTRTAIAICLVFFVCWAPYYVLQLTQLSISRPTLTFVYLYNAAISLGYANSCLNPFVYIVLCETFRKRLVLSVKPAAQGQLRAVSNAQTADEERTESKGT
T4 sequence (P41146 whole entry): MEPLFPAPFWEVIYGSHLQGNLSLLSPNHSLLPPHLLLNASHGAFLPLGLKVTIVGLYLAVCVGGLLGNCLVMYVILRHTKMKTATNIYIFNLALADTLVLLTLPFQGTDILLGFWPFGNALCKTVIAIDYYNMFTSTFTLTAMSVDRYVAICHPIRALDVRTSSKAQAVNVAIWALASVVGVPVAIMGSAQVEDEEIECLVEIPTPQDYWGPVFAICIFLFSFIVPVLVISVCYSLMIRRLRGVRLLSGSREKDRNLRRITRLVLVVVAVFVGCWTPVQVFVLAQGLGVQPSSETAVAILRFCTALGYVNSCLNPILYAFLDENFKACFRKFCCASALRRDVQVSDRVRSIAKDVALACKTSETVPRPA
T10 sequence (P25103 whole entry): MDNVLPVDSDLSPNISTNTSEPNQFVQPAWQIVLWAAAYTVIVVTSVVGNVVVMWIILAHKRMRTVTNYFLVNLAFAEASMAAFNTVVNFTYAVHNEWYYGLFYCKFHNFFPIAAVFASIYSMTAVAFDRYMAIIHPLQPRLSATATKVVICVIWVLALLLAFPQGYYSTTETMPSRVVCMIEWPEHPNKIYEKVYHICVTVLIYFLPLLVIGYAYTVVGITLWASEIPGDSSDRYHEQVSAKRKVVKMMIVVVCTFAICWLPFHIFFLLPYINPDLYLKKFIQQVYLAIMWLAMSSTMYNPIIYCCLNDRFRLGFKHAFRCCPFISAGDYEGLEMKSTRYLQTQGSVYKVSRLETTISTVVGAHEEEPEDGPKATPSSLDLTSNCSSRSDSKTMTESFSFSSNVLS

Question: With `N=C(N)NCC(=O)N[C@H]1C(OCc2ccc(Cl)cc2)O[C@H](COCc2ccc(Cl)cc2)[C@@H](O)[C@@H]1OCc1ccc2ccccc2c1` (stereo partly drawn) [compound 516] as the molecule, how does the “A3: inhibition of radioligand binding, human melanocortin (MC3)” value (from here on “A3: inhibition of radioligand binding”) (Human Melanocortin (MC3)) read?
Answer: + (“+” indicates greater than 50% inhibition at 10 μM)

Question: And the “A11: inhibition of radioligand binding, mouse urotensin (mUR2)” value (from here on “A11: inhibition of radioligand binding”) (Mouse urotensin (mUR2))?
Answer: − (“−” indicates less than 50% inhibition at 10 μM)

Question: And the “A1: inhibition of radioligand binding, human δ-opioid (DOP)” value (shortened to “A1: inhibition … human δ-opioid (DOP)”) (Human δ-opioid (DOP))?
Answer: − (“−” indicates less than 50% inhibition at 10 μM)

Question: And the “A10: inhibition of radioligand binding, human opioid (ORL1)” value (shortened to “A10: inhibition of radioligand binding”) (Human opioid (ORL1); 10 µM)?
Answer: − (“−” indicates less than 50% inhibition at 10 μM)

Question: What about the “A7: inhibition of radioligand binding, human μ-opioid (MOP)” value (from here on “A7: inhibition of radioligand binding”) (Human μ-opioid (MOP)) of the same molecule?
Answer: − (“−” indicates less than 50% inhibition at 10 μM)

Question: And the “A6: inhibition of radioligand binding, human melanin-concentrating hormone (MCH1)” value (from here on “A6: inhibition of radioligand binding”) [1]?
Answer: + (“+” indicates greater than 50% inhibition at 10 μM)

Question: What about the “A9: inhibition of radioligand binding, human neuropeptide Y (NPY-Y1)” value (from here on “A9: inhibition of radioligand binding”) [2] of the same molecule?
Answer: − (“−” indicates less than 50% inhibition at 10 μM)

Question: And the “A5: inhibition of radioligand binding, human melanocortin (MC5)” value (“A5: inhibition of radioligand binding” below) (Human melanocortin (MC5))?
Answer: + (“+” indicates greater than 50% inhibition at 10 μM)

Question: What about the “A2: inhibition of radioligand binding, human κ-opioid (KOP)” value (“A2: inhibition of radioligand binding” for short) (Human κ-Opioid (KOP)) of the same molecule?
Answer: − (“−” indicates less than 50% inhibition at 10 μM)

Question: And the “A8: inhibition of radioligand binding, human neurokinin (NK1)” value (from here on “A8: inhibition of radioligand binding”) (Human neurokinin (NK1))?
Answer: + (“+” indicates greater than 50% inhibition at 10 μM)

Question: What about the “A4: inhibition of radioligand binding, human melanocortin (MC4)” value (from here on “A4: inhibition of radioligand binding”) (Human Melanocortin (MC4)) of the same molecule?
Answer: + (“+” indicates greater than 50% inhibition at 10 μM)

Question: For `N=C(N)NCC(=O)N[C@H]1C(OCc2ccc(Cl)cc2)O[C@H](COCc2ccc3ccccc3c2)[C@@H](O)[C@@H]1OCc1ccc(-c2ccccc2)cc1` (stereo partly drawn) [compound 517], which “A3: inhibition of radioligand binding” value (Human Melanocortin (MC3)) is on record?
Answer: + (“+” indicates greater than 50% inhibition at 10 μM)

Question: And the “A11: inhibition of radioligand binding” value (Mouse urotensin (mUR2))?
Answer: − (“−” indicates less than 50% inhibition at 10 μM)

Question: And the “A1: inhibition … human δ-opioid (DOP)” value (Human δ-opioid (DOP))?
Answer: − (“−” indicates less than 50% inhibition at 10 μM)

Question: What about the “A10: inhibition of radioligand binding” value (Human opioid (ORL1)) of the same molecule?
Answer: − (“−” indicates less than 50% inhibition at 10 μM)

Question: And the “A7: inhibition of radioligand binding” value (Human μ-opioid (MOP))?
Answer: − (“−” indicates less than 50% inhibition at 10 μM)

Question: What about the “A6: inhibition of radioligand binding” value [1] of the same molecule?
Answer: + (“+” indicates greater than 50% inhibition at 10 μM)

Question: What about the “A9: inhibition of radioligand binding” value [2] of the same molecule?
Answer: − (“−” indicates less than 50% inhibition at 10 μM)

Question: And the “A5: inhibition of radioligand binding” value (Human melanocortin (MC5))?
Answer: + (“+” indicates greater than 50% inhibition at 10 μM)

Question: What about the “A2: inhibition of radioligand binding” value (Human κ-Opioid (KOP)) of the same molecule?
Answer: + (“+” indicates greater than 50% inhibition at 10 μM)

Question: And the “A8: inhibition of radioligand binding” value (Human neurokinin (NK1))?
Answer: + (“+” indicates greater than 50% inhibition at 10 μM)

Question: What about the “A4: inhibition of radioligand binding” value (Human Melanocortin (MC4)) of the same molecule?
Answer: + (“+” indicates greater than 50% inhibition at 10 μM)

Question: `N=C(N)NCC(=O)N[C@H]1C(OCc2ccc(Cl)cc2)O[C@H](COCc2ccccc2)[C@@H](O)[C@@H]1OCc1ccc(-c2ccccc2)cc1` (stereo partly drawn) [compound 518] was tested. Which “A3: inhibition of radioligand binding” value (Human Melanocortin (MC3); 10 µM) did it give?
Answer: − (“−” indicates less than 50% inhibition at 10 μM)

Question: And the “A11: inhibition of radioligand binding” value (Mouse urotensin (mUR2))?
Answer: − (“−” indicates less than 50% inhibition at 10 μM)

Question: And the “A1: inhibition … human δ-opioid (DOP)” value (Human δ-opioid (DOP))?
Answer: − (“−” indicates less than 50% inhibition at 10 μM)

Question: What about the “A10: inhibition of radioligand binding” value (Human opioid (ORL1)) of the same molecule?
Answer: − (“−” indicates less than 50% inhibition at 10 μM)

Question: And the “A7: inhibition of radioligand binding” value (Human μ-opioid (MOP))?
Answer: − (“−” indicates less than 50% inhibition at 10 μM)

Question: And the “A6: inhibition of radioligand binding” value ([1]; 10 µM)?
Answer: − (“−” indicates less than 50% inhibition at 10 μM)

Question: And the “A9: inhibition of radioligand binding” value [2]?
Answer: − (“−” indicates less than 50% inhibition at 10 μM)

Question: And the “A5: inhibition of radioligand binding” value (Human melanocortin (MC5); 10 µM)?
Answer: − (“−” indicates less than 50% inhibition at 10 μM)

Question: And the “A2: inhibition of radioligand binding” value (Human κ-Opioid (KOP))?
Answer: − (“−” indicates less than 50% inhibition at 10 μM)

Question: What about the “A8: inhibition of radioligand binding” value (Human neurokinin (NK1)) of the same molecule?
Answer: + (“+” indicates greater than 50% inhibition at 10 μM)

Question: What about the “A4: inhibition of radioligand binding” value (Human Melanocortin (MC4); 10 µM) of the same molecule?
Answer: − (“−” indicates less than 50% inhibition at 10 μM)
